According to ChEMBL document CHEMBL1201862, “PubChem BioAssay data set” (2004):
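How tested: cells in 96-well plates exposed to compound for 48 hours at five concentrations. GI50 marks 50% less growth.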 Active and inactive are the calls of the source. No stated cut-off is given here; in the data, active = GI50 up to about 1.1 µM and inactive = higher.

What was measured:
Experiment in all cases: NCI anticancer screen, dose series, 48 h
[1] = tested on: XF498
[2] = tested on: SK-MEL-2
[3] = tested on: K562
[4] = tested on: SK-MEL-28
[5] = tested on: OVCAR-5
[6] = tested on: OVCAR-4
[7] = tested on: UACC-257
[8] = tested on: RXF 631
[9] = tested on: RPMI-8226
[10] = tested on: COLO 205
[11] = tested on: A498
[12] = tested on: M14
[13] = tested on: SK-OV-3
[14] = tested on: SF-295
[15] = tested on: SN12C
[16] = tested on: NCI-H522
[17] = tested on: NCI-H23
[18] = tested on: LXFL 529
[19] = tested on: MOLT-4
[20] = tested on: SNB-75
[21] = tested on: KM12
[22] = tested on: EKVX
[23] = tested on: HT-29
[24] = tested on: TK-10
[25] = tested on: SR
[26] = tested on: CAKI-1
[27] = tested on: IGROV-1
[28] = tested on: A549
[29] = tested on: SF-539
[30] = tested on: ACHN
[31] = tested on: KM-20L2
[32] = tested on: SNB-78
[33] = tested on: UACC-62
[34] = tested on: UO-31
[35] = tested on: DMS-273
[36] = tested on: HCC 2998
[37] = tested on: HCT-15
[38] = tested on: U-251
[39] = tested on: LOX IMVI
[40] = tested on: OVCAR-3
[41] = tested on: DLD-1
[42] = tested on: NCI-H226
[43] = tested on: SW-620
[44] = tested on: SNB-19
[45] = tested on: SK-MEL-5
[46] = tested on: SF-268
[47] = tested on: OVCAR-8
[48] = tested on: M19-MEL
[49] = tested on: HCT-116
[50] = tested on: HOP-62
[51] = tested on: DMS-114
[52] = tested on: 786-0
[53] = tested on: HOP-92
[54] = tested on: Malme-3M
[55] = tested on: HOP-18
[56] = tested on: RXF 393
[57] = tested on: HL-60
[58] = tested on: NCI-H460

COc1ccccc1NC(=O)CC(=O)NNCC(=O)Nc1nnc(-c2ccccc2)o1
GI50 [1]: > 100 µM (inactive)
GI50 [2]: > 100 µM (inactive)
GI50 [3]: > 100 µM (inactive)
GI50 [4]: > 100 µM (inactive)
GI50 [5]: > 100 µM (inactive)
GI50 [6]: > 100 µM (inactive)
GI50 [7]: > 100 µM (inactive)
GI50 [8]: > 100 µM (inactive)
GI50 [9]: > 100 µM (inactive)
GI50 [10]: > 100 µM (inactive)
GI50 [11]: > 100 µM (inactive)
GI50 [12]: > 100 µM (inactive)
GI50 [13]: > 100 µM (inactive)
GI50 [14]: > 100 µM (inactive)
GI50 [15]: > 100 µM (inactive)
GI50 [16]: > 100 µM (inactive)
GI50 [17]: > 100 µM (inactive)
GI50 [18]: > 100 µM (inactive)
GI50 [19]: > 100 µM (inactive)
GI50 [20]: > 100 µM (inactive)
GI50 [21]: > 100 µM (inactive)
GI50 [22]: > 100 µM (inactive)
GI50 [23]: > 100 µM (inactive)
GI50 [24]: > 100 µM (inactive)
GI50 [25]: > 100 µM (inactive)
GI50 [26]: > 100 µM (inactive)
GI50 [27]: > 100 µM (inactive)
GI50 [28]: > 100 µM (inactive)
GI50 [29]: > 100 µM (inactive)
GI50 [30]: > 100 µM (inactive)
GI50 [31]: > 100 µM (inactive)
GI50 [32]: > 100 µM (inactive)
GI50 [33]: > 100 µM (inactive)
GI50 [34]: > 100 µM (inactive)
GI50 [35]: > 100 µM (inactive)
GI50 [36]: > 100 µM (inactive)
GI50 [37]: > 100 µM
GI50 [38]: > 100 µM (inactive)
GI50 [39]: > 100 µM (inactive)
GI50 [40]: > 100 µM (inactive)
GI50 [41]: > 100 µM (inactive)
GI50 [42]: > 100 µM (inactive)
GI50 [43]: > 100 µM (inactive)
GI50 [44]: > 100 µM (inactive)
GI50 [45]: > 100 µM (inactive)
GI50 [46]: > 100 µM (inactive)
GI50 [47]: > 100 µM (inactive)
GI50 [48]: > 100 µM (inactive)
GI50 [49]: > 100 µM (inactive)
GI50 [50]: > 100 µM (inactive)
GI50 [51]: > 100 µM (inactive)
GI50 [52]: > 100 µM (inactive)

CCCCCCCCCCCC[N+](CCCCCCCCCCCC)=C1SCCS1
GI50 [53]: 10.8 µM (inactive)
GI50 [2]: 10.7 µM (inactive)
GI50 [4]: 11 µM (inactive)
GI50 [5]: 12.2 µM (inactive)
GI50 [6]: 3.6 µM (inactive)
GI50 [7]: 9.14 µM (inactive)
GI50 [8]: 11.1 µM (inactive)
GI50 [9]: 1.49 µM (inactive)
GI50 [10]: 8.04 µM (inactive)
GI50 [11]: 15.7 µM (inactive)
GI50 [12]: 10.5 µM (inactive)
GI50 [13]: 16.6 µM (inactive)
GI50 [14]: 3.05 µM (inactive)
GI50 [15]: 3.92 µM (inactive)
GI50 [16]: 5.82 µM (inactive)
GI50 [17]: 2.04 µM (inactive)
GI50 [18]: 3.81 µM (inactive)
GI50 [19]: 2.98 µM (inactive)
GI50 [20]: 16 µM (inactive)
GI50 [22]: 13.1 µM (inactive)
GI50 [23]: 3.36 µM (inactive)
GI50 [24]: 15.2 µM (inactive)
GI50 [54]: 6.64 µM (inactive)
GI50 [25]: 3.14 µM (inactive)
GI50 [26]: 12.8 µM (inactive)
GI50 [27]: 10.5 µM (inactive)
GI50 [55]: 16.4 µM (inactive)
GI50 [28]: 4.78 µM (inactive)
GI50 [29]: 12.5 µM (inactive)
GI50 [30]: 12.5 µM (inactive)
GI50 [56]: 3.45 µM (inactive)
GI50 [31]: 5.28 µM (inactive)
GI50 [32]: 3.61 µM (inactive)
GI50 [33]: 10.8 µM (inactive)
GI50 [34]: 13.4 µM (inactive)
GI50 [35]: 3.44 µM (inactive)
GI50 [36]: 10.3 µM (inactive)
GI50 [37]: 10.7 µM
GI50 [38]: 3.26 µM (inactive)
GI50 [39]: 1.97 µM (inactive)
GI50 [40]: 7.76 µM (inactive)
GI50 [41]: 8.47 µM (inactive)
GI50 [42]: 14.2 µM (inactive)
GI50 [43]: 3.29 µM (inactive)
GI50 [45]: 6.07 µM (inactive)
GI50 [57]: 0.163 µM (active)
GI50 [46]: 8.04 µM (inactive)
GI50 [47]: 2.86 µM (inactive)
GI50 [58]: 7.28 µM (inactive)
GI50 [48]: 3.29 µM (inactive)
GI50 [49]: 2.84 µM (inactive)
GI50 [50]: 16.7 µM (inactive)
GI50 [51]: 1.7 µM (inactive)
GI50 [52]: 3.52 µM (inactive)
